# Measured values taken from patent publication US7879792B2, “Synthetic peptide inhibitors of thrombin and thrombin activation of protease activated receptors 1 and 4” (The Regents of the University of Michigan, priority 2005, dated 2011).
# “Also recorded” adds a separate entry of the source. Where a SMILES comes first, the peptide text is derived from it.
# Key:
# thrombin = thrombin (Homo sapiens, UniProt P00734); details: read-out: Ki, retrobinders to the active site of thrombin; cited from earlier work
# [1] = system: γ-thrombin-induced platelet aggregation; experiment: γ-thrombin-induced platelet aggregation in human platelet-rich plasma; assay type: cell-based
# Procedure: Fresh whole blood was collected and mixed with 0.013 M sodium citrate and platelet-rich plasma was prepared according to the method of Meloni et al., J. Biol. Chem. 266, 6786 (1991). Platelet-rich plasma with a normalized platelet count between 2-2.5×10^8 platelets/ml was added to a cuvette of an aggregometer (Chronlog Corp., Havertown, Pa.), standardized using the protocol of Meloni et al., supra. Peptides to be examined were added to the cuvette and the mixture stabilized for a few moments. Once the baseline was stabilized, γ-thrombin (10-70 nM) (Haematologic Technologies, Essex Junction, Vt.) was added to determine the minimal concentration of the agonist necessary to achieve full platelet aggregation. All investigations with peptides were performed using threshold concentrations of γ-thrombin. Aggregation was allowed to proceed for 5 minutes before stopping.
# Table III is a tabulation of the library of peptides prepared and their influence on γ-thrombin-induced platelet aggregation in platelet-rich plasma. […] The numbers in the column represent the minimal concentration (mM) of the peptide that blocked 100% γ-thrombin-induced platelet aggregation of platelets in human platelet-rich plasma.
# Human platelet samples were stimulated with 40 nM human gamma thrombin in each experiment.
# [2] = system: normal human lung fibroblasts (NHLF); experiment: α-thrombin-induced calcium mobilization in normal human lung fibroblasts; assay type: cell-based; details: 2 nM alpha thrombin
# Procedure: The second assay developed to assess peptides from the combinatorial libraries uses inhibition of α-thrombin-induced calcium mobilization in fibroblasts. Normal human lung fibroblasts (NHLF) were purchased from Clonetics, San Diego, Calif., an affiliate of Bio-Wittaker, Walkersville, Md. The cytoplasmic free Ca^2+ concentration ([Ca^2+]i) was measured using the fluorescent Ca^2+ indicator fura-2 (Molecular Probes, Inc., Eugene, Oreg.). Suspension of fibroblasts in Hepes-Tyrode's buffer were loaded with fura-2 by incubation at 37° C. with 2 μM fura-2/acetoxymethyl ester for 45 minutes according to the method of Rasmussen et al., J. Biol. Chem. 268, 14322 (1993). The labeled fibroblasts were separated from excess probe by washing by centrifugation at 1000 rpm (180 xg). Aliquots of the labeled fibroblasts were transferred into a quartz cuvette with a magnetic stirrer, which was then placed in a thermostatically controlled chamber at 37° C. in a fluorescence spectrophotometer (Perkin-Elmer LS50B spectrofluorometer, Chicago, Ill.). Reagents, test peptide, and α-thrombin (0.25-2 nM), were sequentially added directly to the cuvette. The excitation wavelengths varied between 340 and 380 nm. Fluorescence was measured by recording emitted light at 510 nm as reported by Fisher et al., Mol Pharm. 35, 195 (1989). The minimum emission was determined on a solubilized fibroblast sample in the presence of 10 mM EDTA; maximum emission was determined on the same sample with 10 mM Ca^2+ added. The intrafibroblast free Ca^2+ concentration was calculated by the method of Grykiewicz et al., J. Biol. Chem. 260, 3440 (1985). The ratio of the fluorescence readings was calculated as R=340/380 nm and processed according to the equation [Ca^2+]i=KD((R−Rmin)/Rmax−R))(Sf2/Sb2) to determine the intrafibroblast free Ca^2+ concentration. The KD for fura-2 was assumed to be 224 nM. Rmax and Rmin are the maximum and minimum fluorescence ratios measured at the end of the experiment, respectively; Sf2 and Sb2 are the fluorescence values at 380 nm in the absence and presence of saturating [Ca^2+], respectively. The reaction was monitored for 3-5 minutes.
# γ-thrombin = experiment: inhibition of γ-thrombin hydrolysis of chromogenic substrate; assay type: biochemical, human; details: read-out: Ki (μM) + SD, γIIa (2 nM); gamma-thrombin 2 nM, Sar-Pro-Arg-paranitroanilide
# C57BL6 mice = experiment: Rose Bengal model for arterial thrombosis, time to carotid artery occlusion; assay type: in vivo, mouse; details: 0.4 to 1.61 mg/kg IP
# Text: C57BL6 mice 6 to 16 weeks of age were anesthetized by intraperitoneal injection with sodium pentobarbital and placed in the supine position on a dissecting microscope (Nikon SMZ-2T, Mager Scientific, Inc., Dexter, Mich.). A midline surgical incision was made to expose the right common carotid artery and a Doppler flow probe (Model 0.5 VB, Transonic Systems, Ithaca, N.Y.) is placed under the vessel. The probe was connected to a flowmeter (Transonic Model T106) and was interpreted with a computerized data acquisition program (Windaq, DATAQ Instruments, Arkron, Ohio). Rose Bengal (4,5,6,7-tetrachloro-3′,6-dihydroxy-2,4,5,7-tetraiodospiro(isobenzofuran-1(3H), 9 [9H] xanthan)-3-1 dipotassium salt) (Fisher Scientific, Fair Lawn, N.J.) at 50 mg/kg in 0.9% saline) was then injected into the tail vein in a 0.12 ml volume (Eitzman et al., Blood 95, 577 (2000)). After injection into the tail vein, a green laser light (Melles Griot, Carlsbad, Calif.) at a wavelength of 540 nm was applied 6 cm from the carotid artery. Flow is monitored continuously from the onset of injury. The time to occlusion was determined only after the vessel remained closed with a cessation of blood flow for 20 min. […] These investigations indicate that these compounds are able to prevent thrombosis in the whole animal in vivo.
# human α-thrombin = human α-thrombin (Homo sapiens, UniProt P00734); experiment: inhibition of α-thrombin hydrolysis of chromogenic substrate; assay type: biochemical; details: Ki (μM) + SD, αIIa (2 nM), alpha-thrombin 2 nM, Sar-Pro-Arg-paranitroanilide
Compound,Ki (thrombin) [µM],"Concentration of Peptide [mM] That Gives 100% Inhibition ([1]; 40 nM human gamma thrombin, human platelet-rich plasma) [mM]",concentration that abolished γ-thrombin-induced platelet aggregation ([1]; 40 nM γ-thrombin) [µM],alpha thrombin-induced calcium mobilization ([2]; 0.00038 mM peptide),inhibition of thrombin-induced calcium mobilization ([2]; 0.003 mM peptide) [%],inhibition of thrombin-induced calcium mobilization ([2]; 0.08 mM peptide) [%],Ki (γ-thrombin) [µM],time to occlusion of the mouse right carotid artery (C57BL6 mice),Ki (human α-thrombin) [µM]
β-Ala-Lys-2Lys-4(Arg-Pro-Pro-Gly-Phe) [MAP4-RPPGF],1750,–,–,–,–,–,–,–,–
"Cc1ccc(C[C@H](NC(=O)[C@@H](CO)NC(=O)[C@@H]2CCCN2C(=O)[C@@H]2C[C@@H]3CCCC[C@@H]3N2C(=O)[C@H](N)CCCNC(=N)N)C(N)=O)cc1 [rOicPsF(p-Me), D-Arg-Oic-Pro-D-Ser-Phe(p-Me)] (HELM PEPTIDE1{[dR].[O=C([C@@H]1C[C@@H]2CCCC[C@@H]2N1[*:1])[*:2]].P.[dS].[Cc1ccc(C[C@H](N[*:1])C(=O)[*:2])cc1].[am]}$$$$V2.0)",–,0.016,16,full recovery,59,97,42.2 ± 6,significant prolongation; also recorded: prolonged,6.4 to 10.6
